Measurements: paper PMC7785372, “An UPLC-MS/MS Method for Determination of Osimertinib in Rat Plasma: Application to Investigating the Effect of Ginsenoside Rg3 on the Pharmacokinetics of Osimertinib” (International Journal of Analytical Chemistry, 2020)
Where two headings read alike, the source gives them in different places. Blank lines part the entries; values can stand above or below the compound they belong to.

Columns and labels:
[1] = Pharmacokinetic study of osimertinib in rats after oral administration, with or without ginsenoside Rg3 pretreatment; assay type: in vivo, Male Sprague-Dawley rats
Experimental: The rats were randomly divided into two groups (six rats for each group). Osimertinib was dissolved and suspended by 1% carboxymethylcellulose sodium solution. The Rg3 powder in Shenyi capsule was dissolved in saline. In the first period, ginsenoside Rg3 (5 mg/kg) was orally administered to the rats in group I for seven days, and the rats in the other group were orally treated with normal saline for seven days. In the second period, the rats were fasted overnight with free access to water before the experiment. After overnight fasting, ginsenoside Rg3 (5 mg/kg) plus osimertinib (10 mg/kg) was orally administered to the rats in group I, and the rats received oral ginsenoside Rg3 30 min prior to osimertinib at the eighth day. Rats in group II were only orally treated with osimertinib (10 mg/kg) at the eighth day. Blood samples (each 100 μL) were collected via the oculi chorioideae vein at 0.5, 1, 2, 3, 4, 5, 6, 7, 8, 10, 12, 15, and 24 h after treatment in heparinized tubes. The blood samples were immediately centrifuged at 3000 rpm for 10 min. The plasma was separated from blood samples and transferred to clean tubes and immediately stored at −80°C until further analysis. The plasma concentrations of osimertinib were determined according to the aforementioned developed UPLC-MS/MS method.
The pharmacokinetic parameters, including the maximal plasma concentration (Cmax), area under the plasma concentration-time curve (AUC), time for the maximal plasma concentration (Tmax), and mean residence time (MRT), were calculated through noncompartmental analysis by Phoenix WinNonlin (Pharsight Inc., USA, version 1.1) software.

[2] = Stability of osimertinib in rat plasma under various storage conditions (QC samples, UPLC-MS/MS); assay type: physicochemical; details: for Autosampler stability, RE / Autosampler stability, measured concentration Mean ± SD: processed rat plasma sample, 4°C for 24 h; for Autosampler stability, RE / Autosampler stability, measured concentration Mean ± SD / Short-term stability, RE / Short-term stability, measured concentration Mean ± SD / Freeze-thawing stability, RE / Freeze-thawing stability, measured concentration Mean ± SD / Long-term stability, RE / Long-term stability, measured concentration Mean ± SD: n = 6; for Short-term stability, RE / Short-term stability, measured concentration Mean ± SD: room temperature for 6 h; for Freeze-thawing stability, RE / Freeze-thawing stability, measured concentration Mean ± SD: −80°C for 3 cycles
Experimental: (1) Short-Term Stability. QC samples (low, medium, and high levels) were assessed by analyzing QC samples kept at room temperature for six hours.
(2) Autosampler Stability. QC samples (low, medium, and high levels) were evaluated after the processed QC samples were placed in an autosampler (4°C) for 24 hours.
(3) Freeze-Thaw Stability. QC samples (low, medium, and high levels) were investigated after storage at room temperature for 8 h, followed by three freeze-thaw cycles (thawing at room temperature during 2 h and freezing again at −80°C for at least 12 h).
(4) Long-Term Stability. QC samples (low, medium, and high levels) were determined by analyzing after storage at −80°C for 28 days.

[3] = set-up: method as in PMID 31371986; details: rats; cited from earlier work
[4] = set-up: method as in PMID 29381826; details: patients with advanced NSCLC, cited from earlier work
P-gp = system: P-gp; set-up: method as in PMID 31371986; details: in vitro; cited from earlier work
BCRP = system: BCRP; set-up: method as in PMID 31371986; details: in vitro; cited from earlier work
cytochrome P450 (CYP3A) = system: cytochrome P450 (CYP3A); set-up: method as in PMID 31371986; details: preclinical studies; cited from earlier work
[5] = male, Sprague-Dawley, rat, in vivo, po, 10 mg/kg
[6] = rat plasma, spiked 3 ng/mL, −80°C for 28 days
[7] = rat plasma, spiked 30 ng/mL, −80°C for 28 days
[8] = rat plasma, spiked 350 ng/mL, −80°C for 28 days

AUC0-t [1, 5]: 2.82 ± 1.20 µg·h/mL | CL/F [1, 5]: 19.8 ± 8.1 L/h/kg | Vz/F [1, 5]: 130 ± 58 L/kg | half-life [1, 5]: 4.46 ± 0.94 h | AUC0-t ([1]; male, Sprague-Dawley, rat, in vivo, po, 10 mg/kg, AUC0-t): 2.82 ± 1.21 µg·h/mL | AUC(0-inf) ([1]; male, Sprague-Dawley, rat, in vivo, po, 10 mg/kg, AUC0-∞): 2.9 ± 1.21 µg·h/mL | Cmax ([1]; male, Sprague-Dawley, rat, in vivo, po, 10 mg/kg, C max): 0.317 ± 0.138 µg/mL | CL/F ([1]; male, Sprague-Dawley, rat, in vivo, po, 10 mg/kg, CL/F): 19.8 L/h/kg | MRT last ([1]; male, Sprague-Dawley, rat, in vivo, po, 10 mg/kg, MRT0-t): 6.88 ± 0.62 h | Tmax ([1]; male, Sprague-Dawley, rat, in vivo, po, 10 mg/kg, T max): 3.33 ± 0.82 h | Vd/F ([1]; male, Sprague-Dawley, rat, in vivo, po, 10 mg/kg, Vz/F): 130 ± 58.1 L/kg | Autosampler stability, RE ([2]; spiked 3 ng/mL): 0.6% | Autosampler stability, measured concentration Mean ± SD ([2]; spiked 3 ng/mL): 3.02 ± 0.01 ng/mL | Autosampler stability, RE ([2]; spiked 30 ng/mL): −4.2% | Autosampler stability, measured concentration Mean ± SD ([2]; spiked 30 ng/mL): 28.7 ± 0.8 ng/mL | Autosampler stability, RE ([2]; spiked 350 ng/mL): 2.5% | Autosampler stability, measured concentration Mean ± SD ([2]; spiked 350 ng/mL): 359 ± 26 ng/mL | Short-term stability, RE ([2]; rat plasma, spiked 3 ng/mL): 6.8% | Short-term stability, measured concentration Mean ± SD ([2]; rat plasma, spiked 3 ng/mL): 3.20 ± 0.14 ng/mL | Freeze-thawing stability, RE ([2]; rat plasma, spiked 3 ng/mL): 1.0% | Freeze-thawing stability, measured concentration Mean ± SD ([2]; rat plasma, spiked 3 ng/mL): 3.03 ± 0.02 ng/mL | Long-term stability, RE [2, 6]: −1.5% | Long-term stability, measured concentration Mean ± SD [2, 6]: 2.96 ± 0.24 ng/mL | Short-term stability, RE ([2]; rat plasma, spiked 30 ng/mL): 0.4% | Short-term stability, measured concentration Mean ± SD ([2]; rat plasma, spiked 30 ng/mL): 30.1 ± 1.0 ng/mL | Freeze-thawing stability, RE ([2]; rat plasma, spiked 30 ng/mL): 0.4% | Freeze-thawing stability, measured concentration Mean ± SD ([2]; rat plasma, spiked 30 ng/mL): 30.1 ± 1.0 ng/mL | Long-term stability, RE [2, 7]: 9.1% | Long-term stability, measured concentration Mean ± SD [2, 7]: 32.7 ± 0.8 ng/mL | Short-term stability, RE ([2]; rat plasma, spiked 350 ng/mL): −2.7% | Short-term stability, measured concentration Mean ± SD ([2]; rat plasma, spiked 350 ng/mL): 341 ± 3 ng/mL | Freeze-thawing stability, RE ([2]; rat plasma, spiked 350 ng/mL): −0.3% | Freeze-thawing stability, measured concentration Mean ± SD ([2]; rat plasma, spiked 350 ng/mL): 349 ± 6 ng/mL | Long-term stability, RE [2, 8]: 2.4% | Long-term stability, measured concentration Mean ± SD [2, 8]: 359 ± 7 ng/mL | Stability under the conditions investigated ([2]; rat plasma, three QC concentrations, room temperature 6 h, autosampler 24 h, three freeze-thaw cycles (−80°C), −80°C for 28 days, all within ±15% of nominal): stable
Structure (SMILES): C=CC(=O)Nc1cc(Nc2nccc(-c3cn(C)c4ccccc34)n2)c(OC)cc1N(C)CCN(C)C [Osimertinib]
MRT [3]: 14.51 h | Tmax [3]: about 4.48 h | t1/2 [3]: 14.96 h | Increase of exposure (AUC) ([4]; coadministered with itraconazole (strong CYP3A4 inhibitor)): 24% | Decrease of exposure (AUC) ([4]; coadministered with rifampicin (CYP3A4 inducer)): 78% | Substrate of P-gp (P-gp): substrate | Substrate of BCRP (BCRP): substrate | Metabolizing enzyme (cytochrome P450 (CYP3A)): principally metabolized by cytochrome P450 (CYP3A)

Structure (SMILES): CC(C)=CCC[C@](C)(O)[C@H]1CC[C@]2(C)[C@@H]1[C@H](O)C[C@@H]1[C@@]3(C)CC[C@H](O[C@@H]4O[C@H](CO)[C@@H](O)[C@H](O)[C@H]4O[C@@H]4O[C@H](CO)[C@@H](O)[C@H](O)[C@H]4O)C(C)(C)[C@@H]3CC[C@]12C [Rg3, Ginsenoside Rg3]
Effect on the main pharmacokinetic parameters of osimertinib ([1]; Rg3 5 mg/kg oral for seven days, coadministered with osimertinib 10 mg/kg oral, rats): no significant effect
